{"source": "ChEMBL document CHEMBL1146625", "about": "“The kinetics of binding to p38MAP kinase by analogues of BIRB 796” (Bioorg Med Chem Lett, 2003)", "key": {"[1]": {"target": "T1, Mitogen-activated protein kinase 14 (Homo sapiens, UniProt Q16539)", "T1 sequence (Q16539 whole entry)": "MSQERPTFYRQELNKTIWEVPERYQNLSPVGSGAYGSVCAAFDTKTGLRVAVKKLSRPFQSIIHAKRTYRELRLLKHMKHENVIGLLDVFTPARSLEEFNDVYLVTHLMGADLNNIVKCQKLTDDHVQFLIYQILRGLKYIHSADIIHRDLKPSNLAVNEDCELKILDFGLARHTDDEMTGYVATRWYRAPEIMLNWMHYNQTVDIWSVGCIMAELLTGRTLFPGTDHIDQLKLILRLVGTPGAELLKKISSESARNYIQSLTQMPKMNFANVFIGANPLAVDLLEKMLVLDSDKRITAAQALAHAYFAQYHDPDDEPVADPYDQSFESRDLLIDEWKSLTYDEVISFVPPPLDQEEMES", "assay": "Binding affinity for Mitogen-activated protein kinase p38 alpha"}, "[2]": {"target": "T1, Mitogen-activated protein kinase 14", "description": "Rate of association to Mitogen-activated protein kinase p38 alpha"}, "[3]": {"target": "T1, Mitogen-activated protein kinase 14", "remark": "listed apart in the source", "description": "Rate of dissociation from Mitogen-activated protein kinase p38 alpha"}}, "data": [{"smiles": "CC(C)(C)c1cc(NC(=O)Nc2ccc(OCCN3CCOCC3)c3ccccc23)n(-c2ccccc2)n1", "values": [{"measurement": "Kd", "setting": "[1]", "result": 0.097, "unit": "nM"}]}, {"smiles": "Cc1ccc(-n2nc(C(C)(C)C)cc2NC(=O)Nc2ccc(OCCN3CCOCC3)c3ccccc23)cc1C(=O)O", "values": [{"measurement": "k on", "setting": "[2]", "result": 25200, "unit": "M⁻¹ s⁻¹"}, {"measurement": "k off", "setting": "[3]", "result": "6.2e-05", "unit": "s⁻¹"}, {"measurement": "Kd", "setting": "[1]", "result": 2.5, "unit": "nM"}]}, {"smiles": "Cc1ccc(-n2nc(C(C)(C)C)cc2NC(=O)Nc2cccc3ccccc23)cc1", "values": [{"measurement": "Kd", "setting": "[1]", "result": 1.1, "unit": "nM"}]}, {"smiles": "O=C(Nc1ccc(OCCN2CCOCC2)c2ccccc12)Nc1ccnn1-c1ccccc1", "values": [{"measurement": "Kd", "setting": "[1]", "result": 2000, "unit": "nM"}]}, {"smiles": "CC(C)c1cc(NC(=O)Nc2ccc(OCCN3CCOCC3)c3ccccc23)n(-c2ccccc2)n1", "values": [{"measurement": "Kd", "setting": "[1]", "result": 5.9, "unit": "nM"}]}, {"smiles": "CN(C)Cc1cccc(-n2nc(C(C)(C)C)cc2NC(=O)Nc2ccc(OCCN3CCOCC3)c3ccccc23)c1", "values": [{"measurement": "Kd", "setting": "[1]", "result": 16, "unit": "nM"}]}, {"smiles": "Cc1ccc(-n2nc(C(C)(C)C)cc2NC(=O)Nc2ccccc2)cc1", "values": [{"measurement": "Kd", "setting": "[1]", "result": 22, "unit": "nM"}]}, {"smiles": "Cn1nc(C(C)(C)C)cc1NC(=O)Nc1ccc(OCCN2CCOCC2)c2ccccc12", "values": [{"measurement": "Kd", "setting": "[1]", "result": 23, "unit": "nM"}]}, {"smiles": "COc1cc(NC(=O)Nc2cc(C(C)(C)C)nn2-c2ccc(C)cc2)c2ccccc2c1OCCN1CCOCC1", "values": [{"measurement": "Kd", "setting": "[1]", "result": 14, "unit": "nM"}]}, {"smiles": "Cc1ccc(-n2nc(C(C)(C)CO)cc2NC(=O)Nc2ccc(OCCN3CCOCC3)c3ccccc23)cc1", "values": [{"measurement": "Kd", "setting": "[1]", "result": 16, "unit": "nM"}]}, {"smiles": "Cc1ccc(-n2nc(C(C)(C)C)cc2NC(=O)Nc2ccc(OCCN3CCOCC3)c3ccccc23)cn1", "values": [{"measurement": "Kd", "setting": "[1]", "result": 1.1, "unit": "nM"}]}, {"smiles": "Cc1ccc(-n2nc(C(C)(C)C)cc2NC(=O)Nc2ccc(OCCN3CCOCC3)cc2)cc1", "values": [{"measurement": "k on", "setting": "[2]", "result": 13000, "unit": "M⁻¹ s⁻¹"}, {"measurement": "k off", "setting": "[3]", "result": 0.0039, "unit": "s⁻¹"}]}, {"smiles": "Cc1ccc(-n2nc(C(C)(C)C)cc2NC(=O)Nc2ccc(OCCN3CCOCC3)c3ccccc23)cc1CN(C)C", "values": [{"measurement": "Kd", "setting": "[1]", "result": 4.8, "unit": "nM"}]}, {"smiles": "COc1cc(NC(=O)Nc2cc(C(C)(C)C)nn2-c2ccc(C)cc2)c2ccccc2c1", "values": [{"measurement": "Kd", "setting": "[1]", "result": 9.4, "unit": "nM"}]}, {"smiles": "Cc1ccc(-n2nc(C(C)(C)C)cc2NC(=O)Nc2ccc(CCCN3CCOCC3)c3ccccc23)cc1", "values": [{"measurement": "Kd", "setting": "[1]", "result": 1.2, "unit": "nM"}]}]}
